{"source": "patent US6686348B2", "about": "“Metalloprotease inhibitors” (Les Laboratoires Servier, priority 2000, dated 2004)", "origin": "cited, not measured here", "test_system": "ovarian cancers", "conditions": "Becket et al., DDT 1996"}
{"smiles": "CNC(=O)[C@H](Cc1ccccc1)NC(=O)[C@H](CC(C)C)[C@H](CSc1cccs1)C(=O)NO", "note": "[BB94]", "values": [{"measurement": "anti-tumour activity in clinical use", "value": "active against ovarian cancers"}]}
